Where a chain is given by its changes, count along the chain named.
What was measured:
[1] = target: T1, C640S mutant glucocorticoid receptor (Rattus norvegicus, UniProt P06536, C640S/D98G); test: Competition binding assay with [3H]Dex, COS-7 cytosol, C640S receptor
T1 construct: Thus the full length receptor was removed from the VARO vector with BamHI and inserted into the SVL vector; expressed in transfected cells; host or cells: COS-7 (cytosol)
T1 sequence (P06536 1-795 D98G/C640S): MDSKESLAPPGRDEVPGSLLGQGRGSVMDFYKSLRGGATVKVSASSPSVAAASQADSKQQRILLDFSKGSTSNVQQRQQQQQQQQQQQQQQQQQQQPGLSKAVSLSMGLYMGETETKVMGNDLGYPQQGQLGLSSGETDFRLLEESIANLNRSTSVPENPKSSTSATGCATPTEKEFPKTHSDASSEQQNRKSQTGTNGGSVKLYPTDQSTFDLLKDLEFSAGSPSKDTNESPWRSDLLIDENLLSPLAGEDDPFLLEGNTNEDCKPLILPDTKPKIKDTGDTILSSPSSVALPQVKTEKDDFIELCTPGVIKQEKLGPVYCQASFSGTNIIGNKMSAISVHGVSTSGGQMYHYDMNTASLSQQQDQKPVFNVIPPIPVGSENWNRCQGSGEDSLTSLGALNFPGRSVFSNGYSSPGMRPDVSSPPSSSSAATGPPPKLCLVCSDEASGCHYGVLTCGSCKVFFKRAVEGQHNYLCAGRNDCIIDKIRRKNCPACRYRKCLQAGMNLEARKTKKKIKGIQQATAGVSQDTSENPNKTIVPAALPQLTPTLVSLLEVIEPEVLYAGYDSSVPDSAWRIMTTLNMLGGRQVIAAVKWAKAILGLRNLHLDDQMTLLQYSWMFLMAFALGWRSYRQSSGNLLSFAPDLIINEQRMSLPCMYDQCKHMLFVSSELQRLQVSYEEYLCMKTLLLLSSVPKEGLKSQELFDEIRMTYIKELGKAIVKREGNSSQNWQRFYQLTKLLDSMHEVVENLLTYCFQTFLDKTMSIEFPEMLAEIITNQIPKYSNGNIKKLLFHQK
Method: (§1) Monolayer cultures of COS-7 cells were grown in DMEM (Gibco) supplemented with 5% fetal bovine serum (FBS) (Biofluids) at 37° C. in a 5% CO2 incubator. Standard calcium phosphate transfection methods were used to introduce the wild type and mutant receptor expression vectors (pSVL) into COS-7 cells (100 mm plates [Costar] at a cell density of about 10^6 /plate were each treated with 10 μg of plasmid DNA). After ~16 hrs of incubation at 37° C. in a 5% CO2 incubator, the excess calcium phosphate and precipitate were removed by washing with phosphate buffered saline (PBS). The cells were incubated at 37° C. for another ~48 hr in DMEM/ 5% FBS and harvested by trypsinization followed by centrifugation (for 10 min at 1570 ×g) and washing 3 times with PBS. The washed cells were stored at -80° C. until used.
COS-7 cell cytosol containing the steroid-free receptors was prepared by cell lysis at -80° C. and centrifugation at 15,000 ×g and labeled as described for HTC cells (S. S. Simons and P. A. Miller, Biochem 23:6876-6882 (1984)). […] The specifically bound [^3 H]Dex was determined by first adding a 10% dextran-coated charcoal solution (added volume =20% of reaction solution volume) to remove free steroid and then subtracting the nonspecific binding seen in the presence of excess nonradioactive Dex.
(§2) Duplicate aliquots (72 μl) of COS-7 cell cytosol (33.5% in pH 8.8 TAPS/27 mM Na2 MoO4 buffer) were treated with 4 μl each of [^3 H]Dex (in pH 8.8 TAPS buffer) and various concentrations of non-radioactive competing steroid (in 20% EtOH in pH 8.8 TAPS buffer) (final concentration of [^3 H]Dex ≈3 ×10^-8 M). The average specific binding was determined after 2.5 or 24 hr of incubation as described above, expressed as percentage of the non-competed control and plotted versus the log10 of the concentration of the competing steroid.
The specificity of steroid binding was determined by Rodbard correction (Rodbard, 1973) of the data from a competition binding assay (S. S. Simons et al., Biochem. Biophys. Res. Comm. 86:793-800 (1979); Miller and Simons, 1988). […]

[2] = target: T2, C656G mutant glucocorticoid receptor (Rattus norvegicus, UniProt P06536, C656G/D98G); test: Competition binding assay with [3H]Dex, COS-7 cytosol, C656G receptor; set-up: Thus the full length receptor was removed from the VARO vector with BamHI and inserted into the SVL vector; expressed in transfected cells; host or cells: COS-7 (cytosol)
T2 sequence (P06536 1-795 D98G/C656G): T1 sequence (P06536 1-795 D98G/C640S) with S640C, C656G
Method: as §1
COS-7 cell cytosol containing the steroid-free receptors was prepared by cell lysis at -80° C. and centrifugation at 15,000 ×g and labeled as described for HTC cells (S. S. Simons and P. A. Miller, Biochem 23:6876-6882 (1984)). Briefly, 30% cytosol solutions containing ~21 mM Na2 MoO4 were prepared with three parts COS-7 cell cytosol, 2 parts pH 9.5 TAPS buffer, and 5 parts pH 8.8 TAPS buffer. The total EtOH in each experiment was kept constant and at a level of ≤1%. […] After incubation for 2.5 hr, the [^3 H]Dex-Mes-labeled solutions were quick-frozen at -78° C. for subsequent SDS-polyacrylamide gel electrophoresis analysis. The specifically bound [^3 H]Dex was determined by first adding a 10% dextran-coated charcoal solution (added volume =20% of reaction solution volume) to remove free steroid and then subtracting the nonspecific binding seen in the presence of excess nonradioactive Dex.
as §2
The specificity of steroid binding was determined by Rodbard correction (Rodbard, 1973) of the data from a competition binding assay (S. S. Simons et al., Biochem. Biophys. Res. Comm. 86:793-800 (1979); Miller and Simons, 1988). The initial data were collected from 2.5 hr binding assays because of concerns about the stability of the receptors over longer times.

## C[C@]12CC[C@@H]3c4ccc(O)cc4CC[C@H]3[C@@H]1CC[C@@H]2O [17β-Estradiol, 17β-estradiol]
[1]
  Relative Ka of Steroid Binding to Receptor: 0.010 ± 0.007
[2]
  Relative Ka of Steroid Binding to Receptor: 0.0017 ± 0.0006

## C[C@]12CCC(=O)C=C1CC[C@@H]1[C@@H]2[C@@H](O)C[C@]2(C=O)[C@@H](C(=O)CO)CC[C@@H]12 [Aldosterone, aldosterone]
[1]
  Relative Ka of Steroid Binding to Receptor: 0.18 ± 0.002
[2]; C656G vs wild type, compared with effect seen for C661S, 2.5 hr incubation
  effect of replacement of Cys-656 with glycine on relative affinity: less of an effect
[2]; C656G vs wild type, from Table 1B and Table 2, aldosterone only "perhaps"
  change in absolute affinity for the glucocorticoid receptor as a result of C656G mutation: decreased

## CC#C[C@]1(O)CC[C@H]2[C@@H]3CCC4=CC(=O)CCC4=C3[C@@H](c3ccc(N(C)C)cc3)C[C@@]21C [RU486]
[1]
  Relative Ka of Steroid Binding to Receptor: 6.8 ± 2.2
[2]
  Relative Ka of Steroid Binding to Receptor: 2.5 ± 0.7
